Assay results as given in patent publication US12703836B2, “Mixture of compounds with high molecular weights, obtained from sugar cane wax (Saccharum officinarum L.)” (CENTRO NACIONAL DE INVESTIGACIONES CIENTÍFICAS, priority 2021, dated 2026).

Tested on: rabbits with spinal cord damage induced by Ischemia/Reperfusion (I/R)
Assay: Mortality in spinal cord ischemia/reperfusion
Type: in vivo, New Zealand rabbits
Settings: oral for 10 days: HMWS 200, AcGS 132, AlcG 40, AldG 28, AcGL 200, ASA 2 mg/kg, positive control 80
Description: The neuroprotective effect of the HMWS mixture, object of the present invention, was also investigated using an experimental model of induction of ischemia in the spinal cord. The composition obtained in example 2 was subjected to a preclinical test in which its pharmacological effect was compared with the effects of pure extracts of Fatty Acids in the form of Salts (AcGS), fatty alcohols (AlcG) and high molecular weight aldehydes (AldG), which were administered at doses equivalent to that of those respective substances in 200 mg/kg of the HMWS Active Ingredient. Furthermore, the effect of HMWS was compared with that of pure extract of free fatty acids (AcGL) administered at equal doses.
Male New Zealand rabbits (1.8-2.2 kg) were used, which were adapted for 15 days to laboratory conditions (temperature of 20 to 25° C., relative humidity of 60±5%, light/dark cycles of 12 hours), with free access to water and food.
The substances HMWS, AcGS, AlcG, AldG, AcGL and aspirin were prepared as suspensions in an acacia/water vehicle (1%). […]
For the induction of ischemia in the spinal cord, the rabbits were anesthetized with thiopental (20 mg/kg i.v.). […] At 4 and 24 hours of reperfusion, the neurological deficit of the animals was blindly evaluated by 2 independent observers (according to Zivin et al., 1982). […]

## CC(=O)Oc1ccccc1C(=O)O [ASA, aspirin]
  Mortality 24 h (%): 40+ %
